IC50 data for 36 compounds are collected here from US10752640B2, “Compounds active towards bromodomains” (NUEVOLUTION A/S, priority 2014, dated 2020).

pIC50: −log10 of the molar value.

This assay deals with BRD4 protein (Homo sapiens, UniProt O60885). The experiment in a line: FRET assay, half maximal inhibitory concentration (IC50). Particulars: BRD4 protein 50 nM, Biotin-H4KAc4 peptide 12.5 nM; A Further List of Classification. It is filed as binding. In a few lines:
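HTRF: 50 nM BRD4 preincubated 30 min at room temperature with compound (10-fold series from 50 μM in 12.5% DMSO) in 50 mM HEPES pH 7.5, 100 mM NaCl, 0.05% CHAPS. Then 12.5 nM biotin-H4KAc4 peptide for 30 min, and anti-GST XL665 (10 nM) plus streptavidin cryptate (2.4 nM) with 0.4 M KF for 1 h. IC50 by variable-slope fit.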
For `Cc1cc(O)nc2ccc(NC(=O)c3cc(S(=O)(=O)N4CCCCC4)ccc3N3CCOCC3)cc12` [S19, N-(2-hydroxy-4-methyl-6-quinolyl)-2-morpholino-5-(1-piperidylsulfonyl)benzamide], the pIC50 was > 6.70.

Take `Cc1cc(O)nc2ccc(NC(=O)c3cc(S(=O)(=O)N4CCOCC4)ccc3N3CCOCC3)cc12` [S20, N-(2-hydroxy-4-methyl-6-quinolyl)-2-morpholino-5-morpholinosulfonyl-benzamide]: the negative-log IC50 (pIC50) was > 6.70.

In the case of `Cc1cc(O)nc2ccc(NC(=O)c3cccc(CN4CCNCC4)c3)cc12` [S21, N-(2-hydroxy-4-methyl-6-quinolyl)-3-(piperazin-1-ylmethyl)benzamide], the negative-log IC50 (pIC50) is 6.00 to 6.30.

On to `Cc1cc(O)nc2ccc(NC(=O)c3cc([N+](=O)[O-])ccc3N(C)C)cc12` [S22, 2-(dimethylamino)-N-(2-hydroxy-4-methyl-6-quinolyl)-5-nitro-benzamide], for which the negative-log IC50 (pIC50) was 6.30 to 6.70.

On to `CNS(=O)(=O)c1cccc(C(=O)Nc2ccc3nc(O)cc(C)c3c2)c1` [S23, N-(2-hydroxy-4-methyl-6-quinolyl)-3-(methylsulfamoyl)benzamide], for which the negative logarithm of the IC50 (pIC50) is < 5.00.

Turning to `Cc1cc(O)nc2ccc(NC(=O)c3cccc(CN4CCCC4=O)c3)cc12` [S24, N-(2-hydroxy-4-methyl-6-quinolyl)-3-[(2-oxopyrrolidin-1-yl)methyl]benzamide, reference compound], the negative logarithm of the IC50 (pIC50) was < 5.00.

For `Cc1cc(O)nc2ccc(NC(=O)c3cc([N+](=O)[O-])ccc3N3CCCC3)cc12` [S25, N-(2-hydroxy-4-methyl-6-quinolyl)-5-nitro-2-pyrrolidin-1-yl-benzamide], the pIC50 was > 6.70.

Regarding `Cc1cc(O)nc2ccc(NC(=O)c3cccc(S(=O)(=O)NCC(N)=O)c3)cc12` [S26, 3-[(2-amino-2-oxo-ethyl)sulfamoyl]-N-(2-hydroxy-4-methyl-6-quinolyl)benzamide], the negative logarithm of the IC50 (pIC50) was < 5.00.

For `Cc1cc(O)nc2ccc(NC(=O)c3cc(S(=O)(=O)N(C)C)ccc3N3CCCC3)cc12` [S27, 5-(dimethylsulfamoyl)-N-(2-hydroxy-4-methyl-6-quinolyl)-2-pyrrolidin-1-yl-benzamide], the pIC50 is > 6.70.

In turn, `Cc1cc(O)nc2ccc(NC(=O)c3cc(N4CCOCC4)ccc3NS(C)(=O)=O)cc12` [S28, N-(2-hydroxy-4-methyl-6-quinolyl)-2-(methanesulfonamido)-5-morpholino-benzamide] gave a negative-log IC50 (pIC50) of 6.30 to 6.70.

Regarding `Cc1cc(O)nc2ccc(NC(=O)c3cccc(N4CCCC4)c3)cc12` [S29, N-(2-hydroxy-4-methyl-6-quinolyl)-3-pyrrolidin-1-yl-benzamide, reference compound], the pIC50 was < 5.00.

On to `Cc1cc(O)nc2ccc(NC(=O)c3ccc(N)c([N+](=O)[O-])c3)cc12` [S30, 4-amino-N-(2-hydroxy-4-methyl-6-quinolyl)-3-nitro-benzamide, reference compound], for which the negative-log IC50 (pIC50) was < 5.00.

`NS(=O)(=O)c1ccc(N2CCOCC2)c(C(=O)Nc2ccc3[nH]c(=O)cc(C(F)(F)F)c3c2)c1` [S32, 2-morpholino-N-[2-oxo-4-(trifluoromethyl)-1H-quinolin-6-yl]-5-sulfamoyl-benzamide] had a pIC50 of 5.00 to 6.00.

Turning to `Cc1cc(O)nc2ccc(NC(=O)c3cc(S(=O)(=O)N(C)C)ccc3F)cc12` [S33, 5-(dimethylsulfamoyl)-2-fluoro-N-(2-hydroxy-4-methyl-6-quinolyl)benzamide], the negative-log IC50 (pIC50) is < 5.00.

On to `Cc1cc(O)nc2ccc(NC(=O)c3cc(S(=O)(=O)N4CCOCC4)ccc3Br)cc12` [S34, 2-bromo-N-(2-hydroxy-4-methyl-6-quinolyl)-5-morpholinosulfonyl-benzamide], for which the negative logarithm of the IC50 (pIC50) was < 5.00.

Take `O=C(Nc1ccc2[nH]c(=O)cc(O)c2c1)c1cc(S(=O)(=O)N2CCOCC2)ccc1N1CCOCC1` [S35, N-(4-hydroxy-2-oxo-1H-quinolin-6-yl)-2-morpholino-5-morpholinosulfonyl-benzamide]: the pIC50 was > 6.70.

Consider `Cc1cc(O)nc2ccc(NC(=O)c3cccc(S(=O)(=O)N4CCN(C)CC4)c3)cc12` [S36, N-(2-hydroxy-4-methyl-6-quinolyl)-3-(4-methylpiperazin-1-yl)sulfonyl-benzamide], for which the pIC50 was < 5.00.

On to `CN(C)S(=O)(=O)c1ccc(N2CCOCC2)c(C(=O)Nc2ccc3[nH]c(=O)[nH]c(=O)c3c2)c1` [S37, 5-(dimethylsulfamoyl)-N-(2,4-dioxo-1H-quinazolin-6-yl)-2-morpholino-benzamide], for which the negative logarithm of the IC50 (pIC50) was < 5.00.

As to `CN1Cc2cc(NC(=O)c3cc(S(=O)(=O)N(C)C)ccc3N3CCOCC3)ccc2NC1=O` [S39, 5-(dimethylsulfamoyl)-N-(3-methyl-2-oxo-1,4-dihydroquinazolin-6-yl)-2-morpholino-benzamide], the pIC50 was > 6.70.

Regarding `Cc1cc(O)nc2ccc(NC(=O)c3cc(S(=O)(=O)N(C)C)ccc3N3CCC(C)C3)cc12` (stereo not drawn) [S41, 5-(dimethylsulfamoyl)-N-(2-hydroxy-4-methyl-6-quinolyl)-2-(3-methylpyrrolidin-1-yl)benzamide], the pIC50 was 6.00 to 6.30.

Turning to `Cc1cc(O)nc2ccc(NC(=O)c3cc(S(=O)(=O)N(C)C)ccc3N3CCC(F)C3)cc12` (stereo not drawn) [S42, 5-(dimethylsulfamoyl)-2-(3-fluoropyrrolidin-1-yl)-N-(2-hydroxy-4-methyl-6-quinolyl)benzamide], the pIC50 is > 6.70.

`COC1CCN(c2ccc(S(=O)(=O)N(C)C)cc2C(=O)Nc2ccc3nc(O)cc(C)c3c2)C1` (stereo not drawn) [S43, 5-(dimethylsulfamoyl)-N-(2-hydroxy-4-methyl-6-quinolyl)-2-(3-methoxypyrrolidin-1-yl)benzamide] gave a negative-log IC50 (pIC50) of 6.00 to 6.30.

With `Cc1cc(O)nc2ccc(NC(=O)c3cc(S(=O)(=O)N(C)C)ccc3N3CCC(C(N)=O)C3)cc12` (stereo not drawn) [S44, 1-[4-(dimethylsulfamoyl)-2-[(2-hydroxy-4-methyl-6-quinolyl)carbamoyl]phenyl]pyrrolidine-3-carboxamide], the pIC50 is > 6.70.

The compound `Cc1cc(O)nc2ccc(NC(=O)c3cc(S(=O)(=O)N(C)C)ccc3N3CCC(N(C)C)C3)cc12` (stereo not drawn) [S45, 2-[3-(dimethylamino)pyrrolidin-1-yl]-5-(dimethylsulfamoyl)-N-(2-hydroxy-4-methyl-6-quinolyl)benzamide] had a pIC50 of 6.00 to 6.30.

In turn, `Cc1cc(O)nc2ccc(NC(=O)c3cc(S(=O)(=O)N(C)C)ccc3N3CCC(CC(C)C)C3)cc12` (stereo not drawn) [S46, 5-(dimethylsulfamoyl)-N-(2-hydroxy-4-methyl-6-quinolyl)-2-(3-isobutylpyrrolidin-1-yl)benzamide] gave a pIC50 of 6.00 to 6.30.

Regarding `Cc1cc(O)nc2ccc(NC(=O)c3cc(S(=O)(=O)N(C)C)ccc3N3CCC(CN(C)C)C3)cc12` (stereo not drawn) [S47, 2-[3-(dimethylaminomethyl)pyrrolidin-1-yl]-5-(dimethylsulfamoyl)-N-(2-hydroxy-4-methyl-6-quinolyl)benzamide], the negative-log IC50 (pIC50) was > 6.70.

Take `Cc1cc(O)nc2ccc(NC(=O)c3cc(S(=O)(=O)N(C)C)ccc3N3CCC(NC(N)=O)C3)cc12` (stereo not drawn) [S48, 5-(dimethylsulfamoyl)-N-(2-hydroxy-4-methyl-6-quinolyl)-2-(3-ureidopyrrolidin-1-yl)benzamide]: the pIC50 is > 6.70.

`Cc1cc(O)nc2ccc(NC(=O)c3cc(S(=O)(=O)N(C)C)ccc3N3CCC(N4CCCC4)C3)cc12` (stereo not drawn) [S49, 5-(dimethylsulfamoyl)-N-(2-hydroxy-4-methyl-6-quinolyl)-2-(3-pyrrolidin-1-ylpyrrolidin-1-yl)benzamide] gave a pIC50 of 6.00 to 6.30.

The compound `Cc1cc(O)nc2ccc(NC(=O)c3cc(S(=O)(=O)N(C)C)ccc3N3CCC(OCC(N)=O)C3)cc12` (stereo not drawn) [S50, 2-[3-(2-amino-2-oxo-ethoxy)pyrrolidin-1-yl]-5-(dimethylsulfamoyl)-N-(2-hydroxy-4-methyl-6-quinolyl)benzamide] had a negative-log IC50 (pIC50) of 6.00 to 6.30.

As to `Cc1cc(O)nc2ccc(NC(=O)c3cc(S(=O)(=O)N(C)C)ccc3N3CCC(c4ccccc4)C3)cc12` (stereo not drawn) [S51, 5-(dimethylsulfamoyl)-N-(2-hydroxy-4-methyl-6-quinolyl)-2-(3-phenylpyrrolidin-1-yl)benzamide], the pIC50 is > 6.70.

As to `Cc1cc(O)nc2ccc(NC(=O)c3cc(S(=O)(=O)N(C)C)ccc3N3CCCC3C)cc12` (stereo not drawn) [S52, 5-(dimethylsulfamoyl)-N-(2-hydroxy-4-methyl-6-quinolyl)-2-(2-methylpyrrolidin-1-yl)benzamide], the negative-log IC50 (pIC50) was 6.00 to 6.30.

For the compound `COCC1CCCN1c1ccc(S(=O)(=O)N(C)C)cc1C(=O)Nc1ccc2nc(O)cc(C)c2c1` (stereo not drawn) [S53, 5-(dimethylsulfamoyl)-N-(2-hydroxy-4-methyl-6-quinolyl)-2-[2-(methoxymethyl)pyrrolidin-1-yl]benzamide], the negative-log IC50 (pIC50) is > 6.70.

For `Cc1cc(O)nc2ccc(NC(=O)c3cc(S(=O)(=O)N(C)C)ccc3N3CCC4CN(C)CC43)cc12` (stereo not drawn) [S54, 5-(dimethylsulfamoyl)-N-(2-hydroxy-4-methyl-6-quinolyl)-2-(5-methyl-2,3,3a,4,6,6a-hexahydropyrrolo[3,4-b]pyrrol-1-yl)benzamide], the pIC50 is 5.00 to 6.00.

`Cc1cc(O)nc2ccc(NC(=O)c3cc(S(=O)(=O)N(C)C)ccc3N3CCCC3CC(C)C)cc12` (stereo not drawn) [S55, 5-(dimethylsulfamoyl)-N-(2-hydroxy-4-methyl-6-quinolyl)-2-(2-isobutylpyrrolidin-1-yl)benzamide] gave a pIC50 of 6.30 to 6.70.

Regarding `Cc1cc(O)nc2ccc(NC(=O)c3cc(S(=O)(=O)N(C)C)ccc3N3CCCC3CN(C)C)cc12` (stereo not drawn) [S56, 2-[2-(dimethylaminomethyl)pyrrolidin-1-yl]-5-(dimethylsulfamoyl)-N-(2-hydroxy-4-methyl-6-quinolyl)benzamide], the pIC50 was > 6.70.

In turn, `Cc1cc(O)nc2ccc(NC(=O)c3cc(S(=O)(=O)N(C)C)ccc3N3CCCC3C(C)(C)O)cc12` (stereo not drawn) [S57, 5-(dimethylsulfamoyl)-2-[2-(1-hydroxy-1-methyl-ethyl)pyrrolidin-1-yl]-N-(2-hydroxy-4-methyl-6-quinolyl)benzamide] had a pIC50 of 5.00 to 6.00.
